Assay [1] concerns RAW 264. The experiment in a line: Inhibition of RANKL-induced osteoclastogenesis in mouse RAW 264 cells at 1 nM […] by TRAP staining based assay. Type of assay: functional, cell-based.
The nature of assay [2]: Inhibition of RANKL-induced osteoclastogenesis in mouse RAW 264 cells at 20 uM […] by TRAP staining based assay relative to control. It is filed as functional. Particulars: RAW264.7.
Assay [3] relates to RAW 264. The experiment in a line: Cytotoxicity against mouse RAW 264 cells assessed as reduction in cell viability at upto 160 uM by MTT assay. Type of assay: functional, cell-based.

In ChEMBL document CHEMBL6071173, “Machine Learning Accelerates Screening of Osteoclast Differentiation Inhibitors from Natural Products” (2024) one finds inhibition and Activity data, which are given here for 2 compounds.

Calls of active or inactive are those of the source. No cut-off for these calls is given here.

The inhibition is the share of the control response that was lost under treatment. On to `CC1=C(/C=C/C(C)=C/C=C/C(C)=C/C(=O)O)C(C)(C)CCC1`, for which the inhibition result with RAW 264 [1] is “Active”.
In assay [2], `C/C=C/C=C/C(=O)O[C@H]1CC/C=C/[C@H](O)[C@H](O)[C@@H](CCC)OC1=O` [PINOLIDOXIN] displayed an inhibition at 20 µM of 57%. Also, the outcome in the assay with RAW 264 [3] was inactive.
